This is an account of results in ChEMBL document CHEMBL1201862, “PubChem BioAssay data set” (2004).

Holding throughout (assay): NCI-60 cell line screen, 48 h
Test [1] deals with SNB-19.
In test [2] the test system is SN12C.
Test [3] concerns IGROV-1.
The test system of test [4] is RPMI-8226.
Test [5] relates to CCRF-CEM.
The test system of test [6] is BT-549.
The test system of test [7] is HCT-116.
In test [8] the test system is SK-MEL-2.
Test [9] has as its system MDA-MB-435.
Test [10] concerns NCI-H460.
For test [11], the system named is DU-145.
Test [12] deals with SNB-75.
Test [13] relates to HT-29.
Test [14] concerns PC-3.
For test [15], the system named is MOLT-4.
Test [16] has as its system HCC 2998.
The subject of test [17] is MDA-N.
The test system of test [18] is UACC-257.
In test [19] the test system is 786-0.
The test system of test [20] is SF-539.

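The compound was tested at five concentrations on cells cultured in 96-well plates, with a 48-hour exposure period. GI50 = concentration required for 50% inhibition of growth.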 The source made the active and inactive calls. No stated cut-off is given here; in the data, active = GI50 up to about 1.1 µM and inactive = higher.

Consider `CO/C(=N\N=C(/c1ccccc1)C(F)(F)F)c1ccncc1`, for which the GI50 in test [1] is > 100 µM (inactive); in [2] it was 66.8 µM (inactive); in test [3] it was 63.2 µM (inactive); in test [4] it was 27.6 µM (inactive); in test [5] it was 17.4 µM (inactive); in [6] it was 31.8 µM (inactive). Besides, the GI50 in [7] is 28.3 µM (inactive); in [8], 25 µM (inactive); in test [9] it was 18.8 µM (inactive); in test [10] it was 35.8 µM (inactive); in test [11], 44.5 µM (inactive); in test [12] it was 34.9 µM (inactive). For the same compound, the GI50 was 42.8 µM (inactive) in [13], 26.1 µM (inactive) in [14] and 19.1 µM (inactive) in test [15].
With `COP(=O)(O)C(N)Cc1c[nH]c2ccccc12` (stereo not given), the GI50 in test [1], in test [2], in test [3], in test [4], in [5] and in test [16] was > 100 µM (inactive) throughout. Moreover, the GI50 in [7], in test [17], in test [8], in [18], in test [9] and in test [10] was > 100 µM (inactive) in each case. Besides, the GI50 in [11], in test [13], in test [14] and in [15] was > 100 µM (inactive) in each case.
For the compound `N=C1N(c2ccccc2)C(=S)/C(=N/c2ccccc2)N1c1ccccc1`, the GI50 in test [1] is 16.6 µM (inactive); in [2] it was 13.3 µM (inactive); in test [3] it was 12 µM (inactive); in test [19] it was 9.68 µM (inactive); in [4] it was 2.31 µM (inactive); in test [5], 4.27 µM (inactive). Besides, the GI50 in test [16] was 15.3 µM (inactive); in [7], 2.53 µM (inactive); in test [17] it was 2.45 µM (inactive); in test [8], 5.89 µM (inactive); in test [18] it was 2.55 µM (inactive); in [9], 1.92 µM (inactive). Further, the GI50 in test [10] is 11.5 µM (inactive); in test [20], 12.4 µM (inactive); in [11], 17.4 µM (inactive); in test [12], 15.9 µM (inactive); in [13], 4.37 µM (inactive); in test [14] it was 10.2 µM (inactive). In addition, in test [15], the GI50 was 1.29 µM (inactive).
Take `O=[N+]([O-])C(/C=C(\Cl)[N+](=O)[O-])=C(N1CCOCC1)N1CCOCC1`: the GI50 in test [1] was > 100 µM (inactive); in test [2], > 100 µM (inactive); in test [3] it was > 100 µM (inactive); in test [19] it was 16.7 µM (inactive); in test [4] it was 26.5 µM (inactive); in test [5], 56.9 µM (inactive). In addition, the GI50 in [16] was 24 µM (inactive); in [7] it was 25.3 µM (inactive); in [17], > 100 µM (inactive); in [8], > 100 µM (inactive); in test [18], > 100 µM (inactive); in test [9], > 100 µM (inactive). In addition, the GI50 in test [10] was > 100 µM (inactive); in test [20] it was 22.3 µM (inactive); in test [11], > 100 µM (inactive); in test [12], 50.5 µM (inactive); in [13], 33.4 µM (inactive); in [14] it was > 100 µM (inactive). Moreover, the GI50 in [15] was 50.2 µM (inactive).
Take `O=C1NN=C(c2ccc([N+](=O)[O-])cc2)C1n1nc(-c2ccccc2)c2ccccc2c1=O` (stereo not given): the GI50 in test [1] is > 100 µM (inactive); in test [2], > 100 µM (inactive); in [3], > 100 µM (inactive); in test [19], > 100 µM (inactive); in test [4] it was > 48.6 µM (inactive); in [5], > 65.5 µM (inactive). For the same compound, the GI50 in [16] is > 100 µM (inactive); in test [7] it was > 63.8 µM (inactive); in test [8], > 100 µM (inactive); in test [18], > 100 µM (inactive); in test [10], > 92.5 µM (inactive); in test [20], > 100 µM (inactive). The results for the GI50 in test [12], in test [13] and in test [15] were > 95.5 µM (inactive), > 100 µM (inactive) and > 94.2 µM (inactive), respectively.
On to `O=C1c2ccccc2C(=O)N1CCn1nc(-c2ccccc2)cc(-c2ccccc2)c1=O`, for which the GI50 in test [1] is > 100 µM (inactive); in test [2] it was 44.6 µM (inactive); in test [3], 74.8 µM (inactive); in [19], > 100 µM (inactive); in test [4], 5.41 µM (inactive); in test [5], 23.2 µM (inactive). In addition, the GI50 in [16] is 67.8 µM (inactive); in test [7] it was 66.8 µM (inactive); in [8], 82 µM (inactive); in [18], > 100 µM (inactive); in test [10] it was 26.2 µM (inactive); in test [20], > 100 µM (inactive). Further, the GI50 in test [12] was 46.7 µM (inactive); in test [13], 52.6 µM (inactive); in test [15], 26.4 µM (inactive).
In the case of `c1ccc2c(c1)ncn2CCn1ccnc1`, the GI50 in [1], in [2], in test [3], in test [19], in test [4] and in [5] was > 100 µM (inactive) in each case. Also, the GI50 in test [16], in test [6], in test [8], in test [9], in test [10] and in test [20] was > 100 µM (inactive) in each case. The GI50 in [11], in [12], in test [13], in [14] and in test [15] was > 100 µM (inactive) in each case.
On to `Cc1ccc2c(c1)Nc1ccccc1P2(=O)O`, for which the GI50 in test [1], in [2], in test [3], in test [19], in test [5] and in test [16] was > 100 µM (inactive) throughout. Also, the GI50 in test [7], in test [17], in [8], in [18], in test [9] and in test [10] was > 100 µM (inactive) in each case. Besides, the GI50 in test [20] was > 100 µM (inactive); in [11], > 100 µM (inactive); in test [12] it was < 0.01 µM (active); in test [13], > 100 µM (inactive); in test [14], > 100 µM (inactive); in test [15], > 100 µM (inactive).
With `COc1cc2c(cc1OC)CC1c3cc(OC)c(OC)cc3CCN1CC2` (stereo not given), the GI50 in [1] was 0.49 µM (active); in test [2], > 100 µM (inactive); in test [3] it was 52.8 µM (inactive); in test [19], > 100 µM (inactive); in test [4] it was 41.8 µM (inactive); in [5] it was > 100 µM (inactive). The GI50 in test [16] is > 100 µM (inactive); in test [6] it was > 100 µM (inactive); in test [7], 26.3 µM (inactive); in [8], > 100 µM (inactive); in test [18], > 100 µM (inactive); in test [9] it was 40.3 µM (inactive). Further, the GI50 in test [10] is 17.5 µM (inactive); in [20], 58.7 µM (inactive); in [11], > 100 µM (inactive); in [12], > 100 µM (inactive); in test [13] it was 27.5 µM (inactive); in test [14], > 100 µM (inactive). Also, in test [15], the GI50 is > 100 µM (inactive).
Consider `COP(=O)(OC)/C(=C\C1=CN(C(c2ccccc2)(c2ccccc2)c2ccccc2)CN1)NC=O`, for which the GI50 is 20.1 µM (inactive) in test [1]; 18.3 µM (inactive) in [2]; 20.6 µM (inactive) in [3]; 15.7 µM (inactive) in [4]; 21.1 µM (inactive) in test [16]; 15.6 µM (inactive) in test [7]. The GI50 is 15.1 µM (inactive) in test [17]; 15.9 µM (inactive) in test [8]; 18.9 µM (inactive) in [18]; 11.1 µM (inactive) in test [9]; 14 µM (inactive) in test [10]; 20.2 µM (inactive) in test [11]. In addition, the GI50 in [12] was 20.2 µM (inactive); in test [13] it was 15 µM (inactive); in [14], 6.44 µM (inactive); in [15] it was 12.8 µM (inactive).
Turning to `OC1CN2CCS[C@H]2C(O)C1O` (stereo not given in full), the GI50 in [1], in [3], in test [19], in test [4], in test [5] and in [16] was > 100 µM (inactive) in each case. The GI50 in test [6], in test [7], in test [8], in test [18], in test [9] and in [10] was > 100 µM (inactive) throughout. In addition, the GI50 in test [11], in test [12], in test [13], in test [14] and in test [15] was > 100 µM (inactive) in each case.
Consider `Cc1ccc(Nc2nc(=S)[nH]c3[nH]ncc23)cc1`, for which the GI50 in [1] is > 100 µM (inactive); in test [2], 71.8 µM (inactive); in test [3], 30.1 µM (inactive); in [19], > 100 µM (inactive); in test [4], 24 µM (inactive); in [5], 1.39 µM (inactive). Also, the GI50 is 77.3 µM (inactive) in test [16]; > 100 µM (inactive) in test [6]; 91.2 µM (inactive) in test [7]; 82.4 µM (inactive) in test [8]; 84.5 µM (inactive) in test [18]; 39.8 µM (inactive) in test [9]. For the same compound, the GI50 in test [10] is 64.6 µM (inactive); in test [20] it was 65.8 µM (inactive); in test [11] it was 85.5 µM (inactive); in [12], > 100 µM (inactive); in [13], 42.5 µM (inactive); in test [14], 51.2 µM (inactive). Further, the GI50 in test [15] was > 100 µM (inactive).
